Assay results as given in ChEMBL document CHEMBL3871304, “Novel benzothiazine-piperazine derivatives by peptide-coupling as potential anti-proliferative agents” (2017).

Legend:
Type in all cases: functional
[1] = Growth inhibition of human HeLa cells after 48 hrs by SRB assay
[2] = Growth inhibition of human MiaPaCa cells after 48 hrs by SRB assay; settings: MIA PaCa-2, 48 h
[3] = Growth inhibition of human MDA-MB-231 cells after 48 hrs by SRB assay; settings: MDA-MB-231, 48 h
[4] = Growth inhibition of human IMR32 cells after 48 hrs by SRB assay; settings: IMR-32, 48 h

Structure (SMILES) | GI50 ([1]; read-out: GI50) [µM] | GI50 ([1]; read-out: pGI50 (converted)) [µM] | GI50 [2] [µM] | GI50 [3] [µM] | GI50 [4] [µM]
O=C(CCN1C(=O)CSc2ccccc21)NCCCN1CCN(c2ccccc2)CC1 | 2.17 | 2.19 | > 100 | < 0.01 | > 100
O=C(CCN1C(=O)CSc2ccccc21)N1CCN(c2ccc(F)cc2)CC1 | 5.4 | 5.37 | > 100 | 2.2 | 10
COc1ccccc1N1CCN(C(=O)CCN2C(=O)CSc3ccccc32)CC1 | 11.9 | 12 | 34.9 | 6.6 | > 100
O=C(CCN1C(=O)CSc2ccccc21)NCCCN1CCC(Cc2ccccc2)CC1 | 56.2 | 56.2 | > 100 | 27.6 | 1.5
O=C(CCN1C(=O)CSc2ccccc21)N1CCN(c2ccccc2F)CC1 | 61 | 61.7 | > 100 | 1.6 | > 100
O=C(CCN1C(=O)CSc2ccccc21)NCCCN1CCN(c2ccc(C(F)(F)F)cc2)CC1 | 5.7 | 5.75 | > 100 | 20.4 | 1.4
CC(C)(C)OC(=O)N1CCN(C(=O)CCN2C(=O)CSc3ccccc32)CC1 | > 100 | 100 | 51.5 | > 100 | > 100
O=C(CCN1C(=O)CSc2ccccc21)NCCCN1CCSCC1 | 0.12 | 0.12 | 83.3 | 0.63 | 0.82
O=C(CCN1C(=O)CSc2ccccc21)N1CCSCC1 | 18.5 | 18.6 | > 100 | 6 | 21.7
O=C(CCN1C(=O)CSc2ccccc21)NCCCN1CCN(c2ccc([N+](=O)[O-])cc2)CC1 | > 100 | 100 | > 100 | > 100 | 0.46
O=C(CCN1C(=O)CSc2ccccc21)N1CCN(c2ccc([N+](=O)[O-])cc2)CC1 | 8.4 | 8.32 | 68.1 | 5.6 | 0.34
O=C(CCN1C(=O)CSc2ccccc21)N1CCN(c2ccccc2)CC1 | 41.9 | 41.7 | > 100 | 5.4 | < 0.01
O=C(CCN1C(=O)CSc2ccccc21)N1CCC(Cc2ccccc2)CC1 | 17.7 | 17.8 | 56.8 | 3.8 | 0.1
COc1ccccc1N1CCN(CCCNC(=O)CCN2C(=O)CSc3ccccc32)CC1 | 0.97 | 0.977 | 59.2 | 2 | > 100
O=C(CCN1C(=O)CSc2ccccc21)NCCCN1CCN(c2ccccc2F)CC1 | 1.4 | 1.41 | > 100 | 4.6 | 1.4
O=C(CCN1C(=O)CSc2ccccc21)N1CCN(c2ccc(C(F)(F)F)cc2)CC1 | 4.2 | 4.17 | > 100 | 1 | 46.4
COc1cccc2c1C(=O)c1c(O)c3c(c(O)c1C2=O)C[C@@](O)(C(=O)CO)C[C@@H]3O[C@H]1C[C@H](N)[C@H](O)[C@H](C)O1 [DOXORUBICIN] | 0.083 | 0.0832 | 0.095 | 0.073 | 0.025
CC(=O)O[C@H]1C(=O)[C@@]2(C)[C@H]([C@H](OC(=O)c3ccccc3)[C@]3(O)C[C@H](OC(=O)[C@H](O)[C@@H](NC(=O)c4ccccc4)c4ccccc4)C(C)=C1C3(C)C)[C@]1(OC(C)=O)CO[C@@H]1C[C@@H]2O [PACLITAXEL] | 0.039 | 0.0389 | 0.06 | 0.092 | 0.086
